# PMC11284896 (Journal of Translational Internal Medicine, 2024)
# Biological target: T1, ABCG2 (Homo sapiens, UniProt Q9UNQ0)
# T1 sequence (Q9UNQ0 1-655): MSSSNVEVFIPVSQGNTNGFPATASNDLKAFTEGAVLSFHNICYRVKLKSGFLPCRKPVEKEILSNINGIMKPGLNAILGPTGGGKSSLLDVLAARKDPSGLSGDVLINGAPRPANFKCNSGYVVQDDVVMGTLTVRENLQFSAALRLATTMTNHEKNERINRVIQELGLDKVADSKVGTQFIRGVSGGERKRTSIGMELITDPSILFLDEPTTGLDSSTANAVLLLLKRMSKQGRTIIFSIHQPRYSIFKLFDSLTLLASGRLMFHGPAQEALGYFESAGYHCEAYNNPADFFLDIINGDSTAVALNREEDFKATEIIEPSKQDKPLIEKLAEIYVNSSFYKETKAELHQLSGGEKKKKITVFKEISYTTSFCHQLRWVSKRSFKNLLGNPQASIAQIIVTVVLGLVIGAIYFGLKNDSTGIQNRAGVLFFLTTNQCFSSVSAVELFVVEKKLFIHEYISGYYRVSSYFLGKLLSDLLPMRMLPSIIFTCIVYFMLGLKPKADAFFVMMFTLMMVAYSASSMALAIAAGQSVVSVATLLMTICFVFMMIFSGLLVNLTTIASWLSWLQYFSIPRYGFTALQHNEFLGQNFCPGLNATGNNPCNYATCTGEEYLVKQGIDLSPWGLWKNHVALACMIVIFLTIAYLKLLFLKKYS
structure (smiles),measurement,value
O=C1c2c(O)ccc(O)c2C(=O)c2c(NCCNCCO)ccc(NCCNCCO)c21 [mitoxantrone],radiolabelled substrate efflux and accumulation in ABCG2-overexpressing NCI-H460,the efflux of [^3H]-mitoxantrone from cells overexpressed ABCG2 transporter was considerably diminished in the presence of RN486
